Where two headings read alike, the source gives them in different places.
Target: β-glucuronidase activity in live E. coli (4MUG to 4MU conversion) (Escherichia coli, UniProt P05804)
Experiment: Cell-based E. coli assay with 4MUG substrate, with and without esterase pre-treatment of prodrug
Details: for IC50: live E. coli
Experimental: For esterase activation, the prodrug is treated with 5 mg/mL esterase for 30 mins at 37° C. to cleave the ester bonds yielding the glucuronide moiety. Following treatment, an inhibitor titration ranging from 10 uM to 10 pM is mixed and preincubated with live E. coli for 5 mins or 4 hours at 37° C. in a microplate with assay buffer (HEPES pH 7, NaCl). Chemically synthesized SY65-G is included as a positive control. Following preincubation, 4-methylumbelliferyl glucuronide (4MUG) is added at a final concentration of 100 uM to the cell and inhibitor mixture. The conversion of 4MUG to 4MU is detected via fluorescence (Ex./Em.: 360/460). […] The untreated prodrug is not active.

[1] = 5 min preincubation, no esterase treatment, read-out: Potency, pre-incubation time 5 min
[2] = 5 min preincubation, treated with 5 mg/mL esterase for 30 mins at 37° C., read-out: Potency, pre-incubation time 5 min, + Esterase
[3] = 4 hour preincubation, no esterase treatment, read-out: Potency, pre-incubation time 4 hour
[4] = 4 hour preincubation, treated with 5 mg/mL esterase for 30 mins at 37° C., read-out: Potency, pre-incubation time 4 hour, + Esterase

Sequence of β-glucuronidase activity in live E. coli (4MUG to 4MU conversion) (P05804 whole entry): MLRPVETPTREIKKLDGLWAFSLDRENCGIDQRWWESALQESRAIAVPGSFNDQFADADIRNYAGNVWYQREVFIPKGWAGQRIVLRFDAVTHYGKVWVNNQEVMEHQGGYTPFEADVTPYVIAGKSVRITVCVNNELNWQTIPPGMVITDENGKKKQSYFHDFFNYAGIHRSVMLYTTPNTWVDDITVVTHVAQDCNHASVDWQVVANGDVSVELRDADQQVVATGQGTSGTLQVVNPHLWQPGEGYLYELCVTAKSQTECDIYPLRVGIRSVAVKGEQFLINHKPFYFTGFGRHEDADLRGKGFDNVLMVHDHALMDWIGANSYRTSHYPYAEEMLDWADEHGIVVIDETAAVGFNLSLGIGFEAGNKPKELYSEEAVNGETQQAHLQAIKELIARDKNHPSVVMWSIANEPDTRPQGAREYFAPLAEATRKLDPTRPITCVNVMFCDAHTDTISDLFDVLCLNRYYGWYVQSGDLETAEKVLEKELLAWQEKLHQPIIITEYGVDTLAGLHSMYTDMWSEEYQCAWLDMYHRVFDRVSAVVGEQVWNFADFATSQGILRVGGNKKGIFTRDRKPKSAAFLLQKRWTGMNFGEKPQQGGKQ

Cc1cc(C)c2[nH]c(=O)c(CN(CCO[C@@H]3O[C@H](C(=O)O)[C@@H](O)[C@H](O)[C@H]3O)C(=O)Nc3ccccc3C(C)C)cc2c1 [SY65-G, (2S,3S,4S,5R,6R)-6-[2-[(6,8-dimethyl-2-oxo-1H-quinolin-3-yl)methyl-[(2-isopropylphenyl)carbamoyl]amino]ethoxy]-3,4,5-trihydroxy-tetrahydropyran-2-carboxylic acid]
IC50 [1]: 0.125 µM
IC50 [2]: 0.093 µM
IC50 [3]: 0.00053 µM
IC50 [4]: 0.00057 µM

COC(=O)[C@H]1O[C@@H](OCCN(Cc2cc3cc(C)cc(C)c3[nH]c2=O)C(=O)Nc2ccccc2C(C)C)[C@H](OC(C)=O)[C@@H](OC(C)=O)[C@@H]1OC(C)=O [SY65-G-Ac, Methyl (2S,3S,4S,5R,6R)-3,4,5-triacetoxy-6-[2-[(6,8-dimethyl-2-oxo-1H-quinolin-3-yl)methyl-[(2-isopropylphenyl)carbamoyl]amino]ethoxy]tetrahydropyran-2-carboxylate]
Potency of esterase treated prodrug versus glucuronide positive control (esterase treated): just as potent as the glucuronide positive control
IC50 [1]: > 10 µM
IC50 [2]: 0.156 µM
IC50 [3]: > 10 µM
IC50 [4]: 0.00052 µM
Activity of untreated prodrug in cell-based assay (without esterase treatment): not active

Reference: patent US20220125778A1 (priority 2019, published 2022)
